Measurements as given in patent US11090319B2, “Therapeutic uses of pharmaceutical compositions comprising cyclic boronic acid ester derivatives” (Melinta Subsidiary Corp., priority 2010, dated 2021).
Like-named read-outs stand apart in the source and are kept apart here.

Key:
[1] = target: various β-lactamases (bacterial lysates) (Klebsiella pneumoniae, UniProt Q9F663); experiment: biochemical; format: biochemical
[2] = target: various β-lactamases (bacterial lysates) (Klebsiella pneumoniae, UniProt Q9F663, H272Y); experiment: biochemical; format: biochemical
[3] = target: various β-lactamases (bacterial lysates) (Pseudomonas aeruginosa, UniProt P14489); experiment: biochemical; format: biochemical; conditions: AZT IC50 KP1007 OXA-10
[4] = target: SME-2, lysate of SM1000 (Serratia marcescens, UniProt P52682); experiment: Inhibition of biapenem hydrolysis by bacterial lysate; conditions: read-out: IC50 of inhibition of biapenem hydrolysis; SM1000 SME-2
[5] = target: GES-1, lysate of pa 1063 (Klebsiella pneumoniae, UniProt Q9KJY7); experiment: Inhibition of ceftazidime hydrolysis by bacterial lysate
[6] = system: strains expressing class A ESBLs; format: cell-based
Procedure: Selected β-lactamase inhibitors were also tested for their ability to potentiate the monobactam tigemonam.

[7] = target: SHV-5, lysate of ec308 (Escherichia coli, UniProt P0AD63, E235K/G234S); experiment: Inhibition of ceftazidime hydrolysis by bacterial lysate
[8] = target: CTX-M-15, lysate of KP1009 (Escherichia coli, UniProt Q9EXV5); experiment: as above
Sequence of CTX-M-15, lysate of KP1009 (Q9EXV5 entry or part of it): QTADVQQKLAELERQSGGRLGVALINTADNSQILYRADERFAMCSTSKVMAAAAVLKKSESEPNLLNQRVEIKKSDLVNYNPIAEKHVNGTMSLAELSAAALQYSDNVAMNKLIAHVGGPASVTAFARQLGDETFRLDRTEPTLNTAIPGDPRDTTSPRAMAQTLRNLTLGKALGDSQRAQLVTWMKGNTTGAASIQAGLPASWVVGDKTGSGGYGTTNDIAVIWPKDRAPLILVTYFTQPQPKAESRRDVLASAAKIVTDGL

[9] = target: OXA-10, lysate of KP1007 (Pseudomonas aeruginosa, UniProt P14489); experiment: as above
[10] = target: SHV-2, lysate of ec306 (Escherichia coli, UniProt P0A9Z7); experiment: as above
[11] = system: EC1007 Escherichia coli KPC-3; experiment: Checkerboard assay, biapenem potentiation; conditions: Biapenem MIC 8-fold; EC1007 KPC-3 class A
[12] = system: ECL1004 Enterobacter cloacae NMC-A; experiment: Checkerboard assay, biapenem potentiation; conditions: Biapenem MIC 8-fold; ECL1004 NMC-A class A
[13] = system: SM1000 Serratia marcescens SME-2; experiment: Checkerboard assay, biapenem potentiation; conditions: Biapenem MIC 8-fold; SM1000 SME-2 class A
[14] = target: various β-lactamases (bacterial lysates) (Salmonella typhimurium, UniProt P0A1V8); experiment: biochemical; format: biochemical; conditions: AZT IC50 KPX1001 OXA-2
[15] = target: various β-lactamases (bacterial lysates) (Escherichia coli, UniProt A0A649V088); experiment: biochemical; format: biochemical; conditions: read-out: AZT IC50 KP1005 CTX-M-14
[16] = target: various β-lactamases (bacterial lysates) (Escherichia coli, UniProt A0A5R8T042); experiment: biochemical; format: biochemical; conditions: read-out: AZT IC50 KP1009 CTX-M-15
Sequence of various β-lactamases (bacterial lysates) (Escherichia coli, UniProt A0A5R8T042) (A0A5R8T042 29-291): as the sequence (Q9EXV5 entry or part of it) above

[17] = target: various β-lactamases (bacterial lysates) (Escherichia coli, UniProt Q53TY8); experiment: Inhibition of nitrocefin cleavage by bacterial lysates, Table 11; format: biochemical; conditions: lysate EC1010 pAmpC (CMY-6), read-out: NCF IC50 EC1010 pAmpC (CMY-6)
[18] = system: EC1007 Escherichia coli KPC-3; experiment: Checkerboard assay, ceftazidime potentiation; conditions: ceftazidime MIC 8-fold; EC1007 KPC-3 class A
[19] = system: ec310 Escherichia coli ACT-1; experiment: Checkerboard assay, ceftazidime potentiation; conditions: ceftazidime MIC 8-fold; ec310 ACT-1 class C
[20] = system: EC1011 Escherichia coli TEM-26; experiment: Checkerboard assay, ceftazidime potentiation; conditions: ceftazidime MIC 8-fold; EC1011 TEM-26 class A
[21] = system: ec302 Escherichia coli TEM-10; experiment: Checkerboard assay, ceftazidime potentiation; conditions: ceftazidime MIC 8-fold; ec302 TEM-10 class A
[22] = system: KP1007 Klebsiella pneumoniae OXA-10, qnrB4; experiment: Checkerboard assay, ceftazidime potentiation; conditions: ceftazidime MIC 8-fold; KP1007 OXA-10, qnrB4 class D
[23] = system: ec301 Escherichia coli TEM-6; experiment: Checkerboard assay, ceftazidime potentiation; conditions: ceftazidime MIC 8-fold; ec301 TEM-6 class A
[24] = system: KP1008 Klebsiella pneumoniae KPC-2; experiment: Checkerboard assay, ceftazidime potentiation; conditions: ceftazidime MIC 8-fold; KP1008 KPC-2 class A
[25] = system: ec303 Escherichia coli TEM-12; experiment: Checkerboard assay, ceftazidime potentiation; conditions: ceftazidime MIC 8-fold; ec303 TEM-12 class A
[26] = system: EC1008 Escherichia coli CTX-M-3; experiment: Checkerboard assay, ceftazidime potentiation; conditions: ceftazidime MIC 8-fold; EC1008 CTX-M-3 class A
[27] = system: KP1009 Klebsiella pneumoniae CTX-M-15; experiment: Checkerboard assay, ceftazidime potentiation; conditions: ceftazidime MIC 8-fold; KP1009 CTX-M-15 class A
[28] = system: ec306 Escherichia coli SHV-2; experiment: Checkerboard assay, ceftazidime potentiation; conditions: ceftazidime MIC 8-fold; ec306 SHV-2 class A
[29] = system: ec304 Escherichia coli TEM-26; experiment: Checkerboard assay, ceftazidime potentiation; conditions: ceftazidime MIC 8-fold; ec304 TEM-26 class A
[30] = system: EC1010 Escherichia coli CMY-6; experiment: Checkerboard assay, ceftazidime potentiation; conditions: ceftazidime MIC 8-fold; EC1010 CMY-6 class C
[31] = system: KP1010 Klebsiella pneumoniae SHV-12; experiment: Checkerboard assay, ceftazidime potentiation; conditions: ceftazidime MIC 8-fold; KP1010 SHV-12 class A
[32] = system: KP1005 Klebsiella pneumoniae CTX-M-14; experiment: Checkerboard assay, ceftazidime potentiation; conditions: ceftazidime MIC 8-fold; KP1005 CTX-M-14 class A
[33] = system: EC1016 Escherichia coli FOX-5; experiment: Checkerboard assay, ceftazidime potentiation; conditions: ceftazidime MIC 8-fold; EC1016 FOX-5 class C
[34] = system: EC1004 Escherichia coli CMY-2; experiment: Checkerboard assay, ceftazidime potentiation; conditions: ceftazidime MIC 8-fold; EC1004 CMY-2 class C
[35] = system: EC1014 Escherichia coli DHA-1; experiment: Checkerboard assay, ceftazidime potentiation; conditions: ceftazidime MIC 8-fold; EC1014 DHA-1 class C
[36] = system: ec308 Escherichia coli SHV-5; experiment: Checkerboard assay, ceftazidime potentiation; conditions: ceftazidime MIC 8-fold; ec308 SHV-5 class A
[37] = system: ec300 Escherichia coli TEM-3; experiment: Checkerboard assay, ceftazidime potentiation; conditions: ceftazidime MIC 8-fold; ec300 TEM-3 class A
[38] = system: EC1009 Escherichia coli TEM-10; experiment: Checkerboard assay, ceftazidime potentiation; conditions: ceftazidime MIC 8-fold; EC1009 TEM-10 class A
[39] = system: EC1006 Escherichia coli FOX-5; experiment: Checkerboard assay, ceftazidime potentiation; conditions: ceftazidime MIC 8-fold; EC1006 FOX-5 class C
[40] = system: ec307 Escherichia coli SHV-4; experiment: Checkerboard assay, ceftazidime potentiation; conditions: ceftazidime MIC 8-fold; ec307 SHV-4 class A
[41] = system: KP1004 Klebsiella pneumoniae KPC-2; experiment: Checkerboard assay, ceftazidime potentiation; conditions: ceftazidime MIC 8-fold; KP1004 KPC-2 class A
[42] = system: EC1012 Escherichia coli TEM-12; experiment: Checkerboard assay, ceftazidime potentiation; conditions: ceftazidime MIC 8-fold; EC1012 TEM-12 class A
[43] = system: ECL1003 Enterobacter cloacae Hyper AmpC expression; experiment: Checkerboard assay, ceftazidime potentiation; conditions: ceftazidime MIC 8-fold; ECL1003 Hyper AmpC class C
[44] = system: CF1000 Citrobacter freundii Hyper AmpC expression; experiment: Checkerboard assay, ceftazidime potentiation; conditions: ceftazidime MIC 8-fold; CF1000 Hyper AmpC class C
[45] = system: KP1012 Klebsiella pneumoniae SHV-18; experiment: Checkerboard assay, ceftazidime potentiation; conditions: ceftazidime MIC 8-fold; KP1012 SHV-18 class A

C[C@]1(Cn2ccnn2)[C@H](C(=O)O)N2C(=O)C[C@H]2S1(=O)=O [Tazobactam, reference compound]
IC50 ([1]; AZT IC50 KP1008 KPC-2): 7390 nM | IC50 ([1]; lysate KP1004 KPC-2, aztreonam cleavage, numeric values, read-out: AZT IC50 KP1004 KPC-2 (converted)): 2460 nM | IC50 [2]: 2460 nM | IC50 [3]: 14800 nM | IC50 [4]: 333 to 3330 nM | IC50 [5]: 333 to 3330 nM | MPC4 CTX-M-14 KP1005 [6]: 10 µg/mL | MPC4 CTX-M-15 KP1009 [6]: 10 µg/mL | MPC4 SHV-5 ec308 [6]: 5 µg/mL | MPC4 SHV-12 KP1010 [6]: 1.25 µg/mL | MPC4 SHV-18 KP1012 [6]: 1.25 µg/mL | MPC4 TEM-10 EC1009 [6]: 2.5 µg/mL | MPC4 TEM-10 ec302 [6]: 5 µg/mL | MPC4 TEM-26 ec304 [6]: 1.25 µg/mL | IC50 [7]: < 333 nM | IC50 [8]: < 333 nM | IC50 [9]: 333 to 3330 nM | IC50 [10]: 333 to 3330 nM

O=C(O)CC1CC[C@H](NC(=O)Cc2ccccc2)B(O)O1 (stereo partly drawn) [Compound 2, 2-((3R)-2-hydroxy-3-(2-phenylacetamido)-1,2-oxaborinan-6-yl)acetic acid]
MPC8 [11]: X (MPC8 of less than 0.16 μg/mL) | MPC8 [12]: Y (MPC8 of 0.16 μg/mL to 1 μg/mL) | MPC8 [13]: Y (MPC8 of 0.16 μg/mL to 1 μg/mL)

Nc1nc(CC(=O)N[C@H]2CC[C@@H](CC(=O)O)OB2O)cs1 [Compound 39, 2-((3R,6S)-3-(2-(2-aminothiazol-4-yl)acetamido)-2-hydroxy-1,2-oxaborinan-6-yl)acetic acid]
IC50 [14]: 1600 to 6390 nM | IC50 ([1]; lysate KP1004 KPC-2, aztreonam cleavage, read-out: AZT IC50 KP1004 KPC-2 (converted)): < 1600 nM | IC50 ([1]; lysate KP1008 KPC-2, aztreonam cleavage, read-out: AZT IC50 KP1008 KPC-2): 1600 to 6390 nM | IC50 [15]: 1600 to 6390 nM | IC50 [2]: < 1600 nM | IC50 [3]: > 6390 nM | IC50 [16]: 1600 to 6390 nM | IC50 [17]: > 6390 nM

O=C(O)CC1CC[C@H](NC(=O)Cc2cccs2)B(O)O1 (stereo partly drawn) [Compound 1, 2-((3R)-2-hydroxy-3-(2-(thiophen-2-yl)acetamido)-1,2-oxaborinan-6-yl)acetic acid]
MPC8 [11]: X (MPC8 of less than 0.16 μg/mL) | MPC8 [12]: Y (MPC8 of 0.16 μg/mL to 1 μg/mL) | MPC8 [18]: X (MPC8 of 2.5 μg/mL or less) | MPC8 [19]: X (MPC8 of 2.5 μg/mL or less) | MPC8 [20]: Z (MPC8 of greater than 10 μg/mL) | MPC8 [21]: Z (MPC8 of greater than 10 μg/mL) | MPC8 [22]: Y (MPC8 of greater than 2.5 μg/mL to 10 μg/mL) | MPC8 [23]: Z (MPC8 of greater than 10 μg/mL) | MPC8 [24]: X (MPC8 of 2.5 μg/mL or less) | MPC8 [25]: Y (MPC8 of greater than 2.5 μg/mL to 10 μg/mL) | MPC8 [26]: X (MPC8 of 2.5 μg/mL or less) | MPC8 [27]: Y (MPC8 of greater than 2.5 μg/mL to 10 μg/mL) | MPC8 [28]: Y (MPC8 of greater than 2.5 μg/mL to 10 μg/mL) | MPC8 [29]: Z (MPC8 of greater than 10 μg/mL) | MPC8 [30]: Y (MPC8 of greater than 2.5 μg/mL to 10 μg/mL) | MPC8 [31]: Y (MPC8 of greater than 2.5 μg/mL to 10 μg/mL) | MPC8 [32]: Z (MPC8 of greater than 10 μg/mL) | MPC8 [33]: Z (MPC8 of greater than 10 μg/mL) | MPC8 [34]: X (MPC8 of 2.5 μg/mL or less) | MPC8 [35]: Z (MPC8 of greater than 10 μg/mL) | MPC8 [36]: Y (MPC8 of greater than 2.5 μg/mL to 10 μg/mL) | MPC8 [37]: Y (MPC8 of greater than 2.5 μg/mL to 10 μg/mL) | MPC8 [38]: Z (MPC8 of greater than 10 μg/mL) | MPC8 [39]: Y (MPC8 of greater than 2.5 μg/mL to 10 μg/mL) | MPC8 [40]: Y (MPC8 of greater than 2.5 μg/mL to 10 μg/mL) | MPC8 [41]: X (MPC8 of 2.5 μg/mL or less) | MPC8 [42]: Y (MPC8 of greater than 2.5 μg/mL to 10 μg/mL) | MPC8 [43]: Z (MPC8 of greater than 10 μg/mL) | MPC8 [13]: Y (MPC8 of 0.16 μg/mL to 1 μg/mL) | MPC8 [44]: Y (MPC8 of greater than 2.5 μg/mL to 10 μg/mL) | MPC8 [45]: Y (MPC8 of greater than 2.5 μg/mL to 10 μg/mL)
